From patent publication US20170209445A1, “KINASE INHIBITORS” (Respivert Limited, priority 2014, published 2017)
Marks after values point to notes of the source that are not given here.

Assays:
[1] = system: PBMCs; assay: LPS-induced IL-8 release in PBMC cells; format: cell-based; conditions: Homo sapiens, LPS-stimulated PBMCs, read-out: IC50 Values for Inhibition of Cytokine Release PBMCs IL-8
Procedure: Peripheral blood mononuclear cells (PBMCs) from healthy subjects are separated from whole blood using a density gradient (Lymphoprep, Axis-Shield Healthcare). The PBMCs are seeded in 96 well plates and treated with compounds at the desired concentration for 2 hours before addition of 1 ng/mL LPS (Escherichia Coli 0111:B4 from Sigma Aldrich) for 24 hours under normal tissue culture conditions (37° C., 5% CO2). The supernatant is harvested for determination of IL-8 and TNFα concentrations by sandwich ELISA (Duo-set, R&D systems) and read on the fluorescence microplate reader (Varioskan® Flash, ThermoFisher Scientific).

[2] = system: Jurkat cells; assay: Cell cytotoxicity assay (Jurkat cell viability); format: cell-based, human; conditions: 24 hours
Procedure: 1×10^5 Jurkat cells (immortalised human T lymphocytes) are added to the appropriate number of wells of a 96 well plate in 100 μL of media (RPMI supplemented with 10% foetal bovine serum). 1 μL of DMSO control (final concentration 1.0% v/v) or test compound (final concentration 20, 5 or 1 μg/mL) is added to the wells and incubated at 37° C., 5% CO2. After 24 hours, the plate is centrifuged at 1200 rpm for 3 minutes and the supernatant discarded. Cells are then resuspended in 150 μL (final concentration 7.5 μg/mL) of propidium iodide (PI) in PBS and incubated at 37° C., 5% CO2 for 15 minutes. After 15 minutes, cells are analysed by flow cytometry (BD accuri) using the FL3 window. The % viability is calculated as the % of cells that are PI negative in the test wells normalised to the DMSO control.

[3] = biological target: T1, c-Src (Homo sapiens, UniProt P12931); assay: c-Src enzyme inhibition, FRET Z-LYTE; format: biochemical
T1 construct: purchased Invitrogen
T1 sequence (P12931 whole entry): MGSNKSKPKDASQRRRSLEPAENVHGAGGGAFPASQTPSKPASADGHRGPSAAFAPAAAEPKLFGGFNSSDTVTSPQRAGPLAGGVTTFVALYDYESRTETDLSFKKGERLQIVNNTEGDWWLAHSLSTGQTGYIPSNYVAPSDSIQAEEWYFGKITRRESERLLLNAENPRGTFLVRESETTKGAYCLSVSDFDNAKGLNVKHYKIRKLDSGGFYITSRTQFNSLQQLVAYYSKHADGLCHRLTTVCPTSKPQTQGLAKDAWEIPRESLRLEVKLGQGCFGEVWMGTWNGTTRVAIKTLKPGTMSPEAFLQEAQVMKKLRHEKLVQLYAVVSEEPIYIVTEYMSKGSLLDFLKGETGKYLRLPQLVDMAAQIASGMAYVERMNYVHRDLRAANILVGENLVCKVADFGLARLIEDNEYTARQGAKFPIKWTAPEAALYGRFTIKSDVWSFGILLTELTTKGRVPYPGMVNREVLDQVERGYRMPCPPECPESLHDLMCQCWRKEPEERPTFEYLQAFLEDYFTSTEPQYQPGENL
Procedure: (§1) The enzyme inhibitory activities of compounds disclosed herein are determined by FRET using synthetic peptides labelled with both donor and acceptor fluorophores (Z-LYTE, Invitrogen Ltd., Paisley, UK).
(§2) The inhibitory activities of compounds of the invention against c-Src and Syk enzymes (Invitrogen), are evaluated in a similar fashion to that described hereinabove. The relevant enzyme (3000 ng/mL or 2000 ng/mL respectively, 2.5 μL) is incubated with the test compound (either 4 μg/mL, 0.4 μg/mL, 0.04 μg/mL, or 0.004 μg/mL, 2.5 μL each) for 2 hr at RT. The FRET peptides (8 μM, 2.5 μL), and appropriate ATP solutions (2.5 μL, 800 μM for c-Src, and 60 μM ATP for Syk) are then added to the enzymes/compound mixtures and incubated for 1 hr. Development reagent (protease, 5 μL) is added for 1 hr prior to detection in a fluorescence microplate reader (Varioskan® Flash, ThermoFisher Scientific).
(§3) In all cases, the site-specific protease cleaves non-phosphorylated peptide only and eliminates the FRET signal. Phosphorylation levels of each reaction are calculated using the ratio of coumarin emission (donor) over fluorescein emission (acceptor), for which high ratios indicate high phosphorylation and low ratios indicate low phosphorylation levels.

[4] = biological target: T2, p38 MAPKα (Homo sapiens, UniProt Q16539); assay: p38 MAPKα enzyme inhibition (Method 2), FRET Z-LYTE; format: biochemical
T2 construct: purchased Invitrogen
T2 sequence (Q16539 whole entry): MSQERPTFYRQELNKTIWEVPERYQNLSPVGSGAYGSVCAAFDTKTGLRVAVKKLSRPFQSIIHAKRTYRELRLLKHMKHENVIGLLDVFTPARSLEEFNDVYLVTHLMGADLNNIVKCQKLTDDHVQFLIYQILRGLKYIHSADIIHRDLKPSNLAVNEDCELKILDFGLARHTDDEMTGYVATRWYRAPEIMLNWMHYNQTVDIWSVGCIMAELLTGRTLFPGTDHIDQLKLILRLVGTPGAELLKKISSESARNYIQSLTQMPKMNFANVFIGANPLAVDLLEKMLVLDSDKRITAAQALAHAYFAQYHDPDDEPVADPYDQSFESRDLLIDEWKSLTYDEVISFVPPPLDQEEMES
Procedure: as §1
The inhibitory activities of test compounds against the p38 MAPKα isoform (MAPK14: Invitrogen), are evaluated indirectly by determining the level of activation/phosphorylation of the down-stream molecule, MAPKAP-K2. The p38 MAPKα protein (80 ng/mL, 2.5 μL) is mixed with the test compound (2.5 μL of either 4 μg/mL, 0.4 μg/mL, 0.04 μg/mL or 0.004 μg/mL) for 2 hr at RT. […] The mixture is incubated for 1 hr at RT. Development reagent (protease, 5 μL) is added for 1 hr prior to detection in a fluorescence microplate reader (Varioskan® Flash, ThermoFisher Scientific).
This method follows the same steps as Method 1 above, but utilises a higher concentration of the p38 MAPKα protein (2.5 μL of 200 ng/mL protein instead of 2.5 μL of 80 ng/mL protein) for mixing with the test compound.
as §3

[5] = biological target: T3, Syk (Homo sapiens, UniProt P43405); assay: Syk enzyme inhibition, FRET Z-LYTE; format: biochemical
T3 construct: purchased Invitrogen
Procedure: as §1, §2, §3

[6] = biological target: T4, GSK3α (Homo sapiens, UniProt P49840); assay: GSK3α enzyme inhibition (Method 2), FRET Z-LYTE; format: biochemical
T4 construct: purchased Invitrogen
T4 sequence (P49840 whole entry): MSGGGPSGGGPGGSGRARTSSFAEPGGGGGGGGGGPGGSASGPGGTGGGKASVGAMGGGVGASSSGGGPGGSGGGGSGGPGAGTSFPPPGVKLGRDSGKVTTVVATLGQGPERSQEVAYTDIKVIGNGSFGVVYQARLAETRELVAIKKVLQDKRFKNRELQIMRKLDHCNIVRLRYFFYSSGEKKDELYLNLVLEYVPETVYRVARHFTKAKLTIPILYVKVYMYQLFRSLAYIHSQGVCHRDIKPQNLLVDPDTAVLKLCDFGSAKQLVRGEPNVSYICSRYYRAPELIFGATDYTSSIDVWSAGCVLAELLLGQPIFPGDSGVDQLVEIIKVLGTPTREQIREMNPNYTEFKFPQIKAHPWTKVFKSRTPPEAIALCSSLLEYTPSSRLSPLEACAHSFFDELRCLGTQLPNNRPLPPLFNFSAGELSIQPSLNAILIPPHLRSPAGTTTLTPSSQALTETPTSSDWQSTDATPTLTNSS
Procedure: as §1
The inhibitory activities of compounds of the invention against the GSK 3α enzyme isoform (Invitrogen), are evaluated by determining the level of activation/phosphorylation of the target peptide. The GSK3-α protein (500 ng/mL, 2.5 μL) is mixed with the test compound (2.5 μL at either 4 μg/mL, 0.4 μg/mL, 0.04 μg/mL, or 0.004 μg/mL) for 2 hr at RT. The FRET peptide (8 μM, 2.5 μL), which is a phosphorylation target for GSK3α, and ATP (40 μM, 2.5 μL) are then added to the enzyme/compound mixture and the resulting mixture incubated for 1 hr. Development reagent (protease, 5 μL) is added for 1 hr prior to detection in a fluorescence microplate reader (Varioskan® Flash, ThermoFisher Scientific).
as §3
This method follows the same steps as Method 1 above, but utilises a shorter period of mixing of the test compound (105 minutes instead of 2 hours) with the GSK3-α protein.

[7] = Hydrolytic stability study; format: physicochemical; conditions: DMSO/water (3:1); for % Parent Remaining, cumulative average from multiple experiments / % Parent Remaining: 1 mg/mL; for % Parent Remaining: experiment in which Example 2 was tested
Procedure: Chemical stability of compounds of the invention was assessed in a mixture of DMSO and water (3:1) at a test compound concentration of 1 mg/mL
General HPLC Procedure • Agilent, Waters X-Select C18, 2.5 μm, 4.6×30 mm column, 4 min method, 5-95% • MeCN/water (0.1% formic acid). • Flow rate 2.5 ml/min. • Column Oven Temperature 40° C. • Detection 254 nm.
Sample Preparation • A 1.0 mg sample of test compound was dissolved in 1 mL of DMSO/water (3:1) and the resulting mixture was stirred at rt overnight.
Recording Stability • A 50 μL aliquot of the test solution was removed and analysed in duplicate by 5 μL HPLC injections. The peak area for the test compound (taken to be 100% product, 0% degradation) was recorded following manual integration of the corresponding UV trace. The area retention time was also recorded. • The test solution was heated to 60° C. internal temperature (65° C. block temperature), with stirring, and timing commenced once the target temperature had been reached. After 5 and 24 h, samples were removed and analysed by HPLC (5 μL injections). In all cases, 5 μL injections were used and the samples analysed in duplicate. • The peak areas for the test compounds were recorded at both subsequent timepoints and the % decomposition calculated from the % change in peak area over time.

In the case of C#Cc1cc(Nc2ncc3cc(-c4cc(C(=O)Nc5cc(C(C)(C)C)cc(NS(C)(=O)=O)c5OC)ccc4C)ccc3n2)cc(C(=O)NCCOCCOCCOC)c1 [14(g), N-(5-(tert-Butyl)-2-methoxy-3-(methylsulfonamido)phenyl)-3-(2-((3-ethynyl-5-((2-(2-(2-methoxyethoxy)ethoxy)ethyl)carbamoyl)phenyl)amino)quinazolin-6-yl)-4-methylbenzamide], the IC50 [1] is reported as 17.3 nM, the “% Viability at 1 μg/mL” value [2] is reported as 110.1% and the “% Viability at 5 μg/mL” value [2] is reported as 75.5%. For the same molecule, the “% Viability at 20 μg/mL” value [2] was 65.4%.

For COc1c(NC(=O)c2ccc(C)c(-c3ccc4nc(Nc5cccc(CP(C)(C)=O)c5)ncc4c3)c2)cc(C(C)(C)C)cc1NS(C)(=O)=O [14(i), N-(5-(tert-Butyl)-2-methoxy-3-(methylsulfonamido)phenyl)-3-(2-((3-((dimethylphosphoryl)methyl)phenyl)amino)quinazolin-6-yl)-4-methylbenzamide], the IC50 [1] was 6.9 nM, the “% Viability at 1 μg/mL” value [2] was 69.8% and the “% Viability at 5 μg/mL” value [2] was 8.4%. For the same molecule, the “% Viability at 20 μg/mL” value [2] was 2.1%.

Work on COCCOCCOCCOc1cc(Nc2ncc3cc(-c4cc(C(=O)Nc5cccc(C(F)(F)F)c5)ccc4C)ccc3n2)cc(OC)c1 [Example 1, 3-(2-((3-Methoxy-5-(2-(2-(2-methoxyethoxy)ethoxy)ethoxy)phenyl)amino)quinazolin-6-yl)-4-methyl-N-(3-(trifluoromethyl)phenyl)benzamide] yielded an IC50 [3] of 14 nM, an IC50 [4] of 776 nM and an IC50 [1] of 134 nM. For the same molecule, the IC50 [5] was greater than 1450 nM and the IC50 [6] was greater than 14500 nM.

Work on COc1cc(Nc2ncc3cc(-c4cc(C(=O)Nc5cc(C(C)(C)C)cc(P(C)(C)=O)c5OC)ccc4C)ccc3n2)cc(C(=O)NCCN2CCOCC2)c1 [Example 4, N-(5-(tert-Butyl)-3-(dimethylphosphoryl)-2-methoxyphenyl)-3-(2-((3-methoxy-5-((2-morpholinoethyl)carbamoyl)phenyl)amino)quinazolin-6-yl)-4-methylbenzamide] yielded an IC50 [1] of 14.8 nM and an IC50 [6] greater than 12800 nM.

In the case of COc1c(NC(=O)c2ccc(C)c(-c3ccc4nc(Nc5ccc(N=S(C)(C)=O)cc5)ncc4c3)c2)cc(C(C)(C)C)cc1NS(C)(=O)=O [Example 7, N-(5-(tert-Butyl)-2-methoxy-3-(methylsulfonamido)phenyl)-3-(2-((4-((dimethyl(oxo)-I6-sulfanylidene)amino)phenyl)amino)quinazolin-6-yl)-4-methylbenzamide], the IC50 [1] is reported as 3.8 nM, the “% Viability at 1 μg/mL” value [2] is reported as 79.0% and the “% Viability at 5 μg/mL” value [2] is reported as 54.7%. The “% Viability at 20 μg/mL” value [2] was 49.7%.

With COc1cc(Nc2ncc3cc(-c4cc(C(=O)Nc5cc(C(C)(C)C)cc(NS(C)(=O)=O)c5OC)ccc4C)ccc3n2)ccc1C(=O)O [Example 8, 4-((6-(5-((5-(tert-Butyl)-2-methoxy-3-(methylsulfonamido)phenyl)carbamoyl)-2-methylphenyl)quinazolin-2-yl)amino)-2-methoxybenzoic acid] the IC50 [1] was 4 nM, the “% Viability at 1 μg/mL” value [2] was 91.1% and the “% Viability at 5 μg/mL” value [2] was 65.8%. The “% Viability at 20 μg/mL” value [2] was 30.6%.

With COc1cc(Nc2ncc3cc(-c4cc(C(=O)Nc5cc(C(C)(C)C)cc(NS(C)(=O)=O)c5OC)ccc4C)ccc3n2)ccc1C(=O)N(C)CCN1CCOCC1 [Example 9, 4-((6-(5-((5-(tert-Butyl)-2-methoxy-3-(methylsulfonamido)phenyl)carbamoyl)-2-methylphenyl)quinazolin-2-yl)amino)-2-methoxy-N-methyl-N-(2-morpholinoethyl)benzamide] the IC50 [1] was 3.1 nM, the “% Viability at 1 μg/mL” value [2] was 63.0% and the “% Viability at 5 μg/mL” value [2] was 38.4%. The “% Viability at 20 μg/mL” value [2] was 28.7%.

In the case of COCC(=O)Nc1cc(Oc2ccc(NC(=O)Nc3cc(C(C)(C)C)nn3-c3ccc(C)cc3)c3ccccc23)ccn1 [Reference Compound A, N-(4-(4-(3-(3-tert-butyl-1-p-tolyl-1H-pyrazol-5-yl)ureido)naphthalen-1-yloxy)pyridin-2-yl)-2-methoxyacetamide, reference compound], the “% Viability at 1 μg/mL” value [2] is reported as 23.5%, the “% Viability at 5 μg/mL” value [2] is reported as 18.9% and the “% Viability at 20 μg/mL” value [2] is reported as 17.3%.

With C#Cc1cc(Nc2nccc(Oc3ccc(NC(=O)Nc4cc(C(C)C)nn4-c4ccc(C)cc4)c4ccccc34)n2)cc(C(=O)NCCN2CCOCC2)c1 [Reference Compound B, 3-ethynyl-5-((4-((4-(3-(3-isopropyl-1-(p-tolyl)-1H-pyrazol-5-yl)ureido)naphthalen-1-yl)oxy)pyrimidin-2-yl)amino)-N-(2-morpholinoethyl)benzamide] the “% Parent Remaining, cumulative average from multiple experiments” value (“% Parent Remaining, cumulative average” below) ([7]; 60° C., 300 min) was 71.0%, the “% Parent Remaining” value ([7]; 60° C., 300 min) was 93.3% and the “% Parent Remaining, cumulative average” value ([7]; 60° C., 1440 min) was 26.0%. The “% Parent Remaining” value ([7]; 60° C., 1440 min) was 52.3%, the “% Parent Remaining, cumulative average” value ([7]; time 0 min) was 100^a (100^b) % and the “% Parent Remaining” value ([7]; time 0 min) was 100^a (100^b) %. The “decomposition under the conditions of the hydrolytic stability experiment, in words” value ([7]; 60° C.) was “underwent substantial decomposition”.
